{"source": "patent US12435044B2", "about": "“Pyridazinone herbicides and pyridazinone intermediates used to prepare a herbicide” (FMC Corporation, priority 2018, dated 2025)", "experiment_in_all_cases": "Test E pre-/postemergence greenhouse test", "type_in_all_cases": "in vivo", "key": {"[1]": {"tested_on": "field bindweed (Convolvulus arvensis)", "source_text": "(§1) Seeds of plant species selected from corn (Zea mays), soybean (Glycine max), velvetleaf (Abutilon theophrasti), lambsquarters (Chenopodium album), poinsettia, wild (Euphorbia heterophylla), pigweed, palmer (Amaranthus palmeri), waterhemp (common waterhemp, Amaranthus rudis), surinam grass (Brachiaria decumbens), crabgrass, large (Digitaria sanguinalis), crabgrass, Brazil (Digitaria horizontalis), panicum, fall (Panicum dichotomiflorum), foxtail, giant (Setaria faberii), foxtail, green (Setaria viridis), goosegrass (Eleusine indica), johnsongrass (Sorghum halepense), ragweed (common ragweed, Ambrosia elatior), barnyardgrass (Echinochloa crus-galli), sandbur (southern sandbur, Cenchrus echinatus), arrowleaf sida (Sida rhombifolia), ryegrass, Italian (Lolium multiflorum), dayflower, VA (Virginia (VA) dayflower, Commelina virginica), field bindweed (Convolvulus arvensis), morningglory (Ipomoea coccinea), horseweed (Conyza canadensis), kochia (Kochia scoparia), nutsedge, yellow (Cyperus esculentus) and hairy beggarticks (Bidenspilosa), were planted into a silt loam soil and treated preemergence with test chemicals formulated in a non-phytotoxic solvent mixture which included a surfactant.\n(§2) At the same time, plants selected from these crop and weed species and also waterhemp_RES1, (ALS & Triazine resistant common waterhemp, Amaranthus rudis), and waterhemp_RES2, (ALS & HPPD resistant common waterhemp, Amaranthus rudis) were planted in pots containing Redi-Earth® planting medium (Scotts Company, 14111 Scottslawn Road, Marysville, Ohio 43041) comprising spaghnum peat moss, vermiculite, wetting agent and starter nutrients were treated with postemergence applications of test chemicals formulated in the same manner. Plants ranged in height from 2 to 18 cm for postemergence treatments (1- to 4-leaf stage). Treated plants and controls were maintained in a greenhouse for 14 to 21 d, after which time all species were compared to controls and visually evaluated. Plant response ratings, summarized in Table E, are based on a scale of 0 to 100 where 0 is no effect and 100 is complete control. A dash (-) response means no test result."}, "[2]": {"tested_on": "johnsongrass (Sorghum halepense)", "details": "Preemergence", "source_text": "as §1, §2"}, "[3]": {"tested_on": "dayflower, VA (Virginia (VA) dayflower, Commelina virginica)", "source_text": "as §1, §2"}, "[4]": {"tested_on": "ryegrass, Italian (Lolium multiflorum)", "source_text": "as §1, §2"}, "[5]": {"tested_on": "poinsettia, wild (Euphorbia heterophylla)", "source_text": "as §1, §2"}, "[6]": {"tested_on": "morningglory (Ipomoea coccinea)", "details": "Preemergence", "source_text": "as §1, §2"}, "[7]": {"tested_on": "crabgrass, Brazil (Digitaria horizontalis)", "source_text": "as §1, §2"}, "[8]": {"tested_on": "sandbur (southern sandbur, Cenchrus echinatus)", "source_text": "as §1, §2"}, "[9]": {"tested_on": "goosegrass (Eleusine indica)", "details": "Preemergence", "source_text": "as §1, §2"}, "[10]": {"tested_on": "hairy beggarticks (Bidenspilosa)", "source_text": "as §1, §2"}, "kochia (Kochia scoparia)": {"tested_on": "kochia (Kochia scoparia)", "source_text": "as §1, §2"}, "[11]": {"tested_on": "foxtail, green (Setaria viridis)", "details": "Preemergence", "source_text": "as §1, §2"}}}
{"compound": "Cc1ccc2ccc(C)c(-c3c(O)c(Cl)nn(C)c3=O)c2c1", "note": "[Cpd. No. 20, 6-chloro-4-(2,7-dimethyl-1-naphthalenyl)-5-hydroxy-2-methyl-3(2H)-pyridazinone]", "values": [{"measurement": "Plant response rating, Field Bindweed", "setting": "[1]; Postemergence, 16 g ai/ha", "value": 75}, {"measurement": "Plant response rating, Field Bindweed", "setting": "[1]; Postemergence, 31 g ai/ha", "value": 90}, {"measurement": "Plant response rating, Field Bindweed", "setting": "[1]; Postemergence, 62 g ai/ha", "value": 90}, {"measurement": "Plant response rating, Field Bindweed", "setting": "[1]; Postemergence, 125 g ai/ha", "value": 90}, {"measurement": "Plant response rating, Field Bindweed", "setting": "[1]; Preemergence, 16 g ai/ha", "value": 5}, {"measurement": "Plant response rating, Field Bindweed", "setting": "[1]; Preemergence, 31 g ai/ha", "value": 85}, {"measurement": "Plant response rating, Field Bindweed", "setting": "[1]; Preemergence, 62 g ai/ha", "value": 90}, {"measurement": "Plant response rating, Field Bindweed", "setting": "[1]; Preemergence, 125 g ai/ha", "value": 100}, {"measurement": "Plant response rating, Johnsongrass", "setting": "[2]; 16 g ai/ha", "value": 0}, {"measurement": "Plant response rating, Johnsongrass", "setting": "[2]; 31 g ai/ha", "value": 0}, {"measurement": "Plant response rating, Johnsongrass", "setting": "[2]; 125 g ai/ha", "value": 50}, {"measurement": "Plant response rating, Dayflower, VA", "setting": "[3]; Postemergence, 16 g ai/ha", "value": 30}, {"measurement": "Plant response rating, Dayflower, VA", "setting": "[3]; Postemergence, 31 g ai/ha", "value": 50}, {"measurement": "Plant response rating, Dayflower, VA", "setting": "[3]; Postemergence, 62 g ai/ha", "value": 60}, {"measurement": "Plant response rating, Dayflower, VA", "setting": "[3]; Postemergence, 125 g ai/ha", "value": 70}, {"measurement": "Plant response rating, Dayflower, VA", "setting": "[3]; Preemergence, 16 g ai/ha", "value": 0}, {"measurement": "Plant response rating, Dayflower, VA", "setting": "[3]; Preemergence, 31 g ai/ha", "value": 0}, {"measurement": "Plant response rating, Dayflower, VA", "setting": "[3]; Preemergence, 62 g ai/ha", "value": 0}, {"measurement": "Plant response rating, Dayflower, VA", "setting": "[3]; Preemergence, 125 g ai/ha", "value": 5}, {"measurement": "Plant response rating, Ryegrass, Italian", "setting": "[4]; Postemergence, 16 g ai/ha", "value": 70}, {"measurement": "Plant response rating, Ryegrass, Italian", "setting": "[4]; Postemergence, 31 g ai/ha", "value": 80}, {"measurement": "Plant response rating, Ryegrass, Italian", "setting": "[4]; Postemergence, 62 g ai/ha", "value": 85}, {"measurement": "Plant response rating, Ryegrass, Italian", "setting": "[4]; Postemergence, 125 g ai/ha", "value": 90}, {"measurement": "Plant response rating, Ryegrass, Italian", "setting": "[4]; Preemergence, 16 g ai/ha", "value": 0}, {"measurement": "Plant response rating, Ryegrass, Italian", "setting": "[4]; Preemergence, 31 g ai/ha", "value": 25}, {"measurement": "Plant response rating, Ryegrass, Italian", "setting": "[4]; Preemergence, 62 g ai/ha", "value": 98}, {"measurement": "Plant response rating, Ryegrass, Italian", "setting": "[4]; Preemergence, 125 g ai/ha", "value": 95}, {"measurement": "Plant response rating, Poinsettia, Wild", "setting": "[5]; Postemergence, 16 g ai/ha", "value": 20}, {"measurement": "Plant response rating, Poinsettia, Wild", "setting": "[5]; Postemergence, 31 g ai/ha", "value": 50}, {"measurement": "Plant response rating, Poinsettia, Wild", "setting": "[5]; Postemergence, 62 g ai/ha", "value": 40}, {"measurement": "Plant response rating, Poinsettia, Wild", "setting": "[5]; Postemergence, 125 g ai/ha", "value": 50}, {"measurement": "Plant response rating, Poinsettia, Wild", "setting": "[5]; Preemergence, 16 g ai/ha", "value": 0}, {"measurement": "Plant response rating, Poinsettia, Wild", "setting": "[5]; Preemergence, 31 g ai/ha", "value": 0}, {"measurement": "Plant response rating, Poinsettia, Wild", "setting": "[5]; Preemergence, 62 g ai/ha", "value": 0}, {"measurement": "Plant response rating, Poinsettia, Wild", "setting": "[5]; Preemergence, 125 g ai/ha", "value": 0}, {"measurement": "Plant response rating, Morningglory", "setting": "[6]; 16 g ai/ha", "value": 10}, {"measurement": "Plant response rating, Morningglory", "setting": "[6]; 31 g ai/ha", "value": 20}, {"measurement": "Plant response rating, Morningglory", "setting": "[6]; 62 g ai/ha", "value": 60}, {"measurement": "Plant response rating, Morningglory", "setting": "[6]; 125 g ai/ha", "value": 100}, {"measurement": "Plant response rating, Crabgrass, Brazil", "setting": "[7]; Postemergence, 16 g ai/ha", "value": 20}, {"measurement": "Plant response rating, Crabgrass, Brazil", "setting": "[7]; Postemergence, 31 g ai/ha", "value": 40}, {"measurement": "Plant response rating, Crabgrass, Brazil", "setting": "[7]; Postemergence, 62 g ai/ha", "value": 60}, {"measurement": "Plant response rating, Crabgrass, Brazil", "setting": "[7]; Postemergence, 125 g ai/ha", "value": 85}, {"measurement": "Plant response rating, Crabgrass, Brazil", "setting": "[7]; Preemergence, 16 g ai/ha", "value": 75}, {"measurement": "Plant response rating, Crabgrass, Brazil", "setting": "[7]; Preemergence, 31 g ai/ha", "value": 90}, {"measurement": "Plant response rating, Crabgrass, Brazil", "setting": "[7]; Preemergence, 62 g ai/ha", "value": 100}, {"measurement": "Plant response rating, Crabgrass, Brazil", "setting": "[7]; Preemergence, 125 g ai/ha", "value": 100}, {"measurement": "Plant response rating, Sandbur", "setting": "[8]; Postemergence, 16 g ai/ha", "value": 60}, {"measurement": "Plant response rating, Sandbur", "setting": "[8]; Postemergence, 31 g ai/ha", "value": 60}, {"measurement": "Plant response rating, Sandbur", "setting": "[8]; Postemergence, 62 g ai/ha", "value": 70}, {"measurement": "Plant response rating, Sandbur", "setting": "[8]; Postemergence, 125 g ai/ha", "value": 85}, {"measurement": "Plant response rating, Sandbur", "setting": "[8]; Preemergence, 16 g ai/ha", "value": 30}, {"measurement": "Plant response rating, Sandbur", "setting": "[8]; Preemergence, 31 g ai/ha", "value": 75}, {"measurement": "Plant response rating, Sandbur", "setting": "[8]; Preemergence, 62 g ai/ha", "value": 85}, {"measurement": "Plant response rating, Sandbur", "setting": "[8]; Preemergence, 125 g ai/ha", "value": 90}, {"measurement": "Plant response rating, Goosegrass", "setting": "[9]; 16 g ai/ha", "value": 0}, {"measurement": "Plant response rating, Goosegrass", "setting": "[9]; 31 g ai/ha", "value": 0}, {"measurement": "Plant response rating, Goosegrass", "setting": "[9]; 62 g ai/ha", "value": 30}, {"measurement": "Plant response rating, Goosegrass", "setting": "[9]; 125 g ai/ha", "value": 75}, {"measurement": "Plant response rating, Beggarticks", "setting": "[10]; Postemergence, 16 g ai/ha", "value": 90}, {"measurement": "Plant response rating, Beggarticks", "setting": "[10]; Postemergence, 31 g ai/ha", "value": 95}, {"measurement": "Plant response rating, Beggarticks", "setting": "[10]; Postemergence, 62 g ai/ha", "value": 95}, {"measurement": "Plant response rating, Beggarticks", "setting": "[10]; Postemergence, 125 g ai/ha", "value": 100}, {"measurement": "Plant response rating, Beggarticks", "setting": "[10]; Preemergence, 16 g ai/ha", "value": 20}, {"measurement": "Plant response rating, Beggarticks", "setting": "[10]; Preemergence, 31 g ai/ha", "value": 90}, {"measurement": "Plant response rating, Beggarticks", "setting": "[10]; Preemergence, 62 g ai/ha", "value": 95}, {"measurement": "Plant response rating, Beggarticks", "setting": "[10]; Preemergence, 125 g ai/ha", "value": 100}, {"measurement": "Plant response rating, Kochia", "setting": "kochia (Kochia scoparia); Postemergence, 16 g ai/ha", "value": 80}, {"measurement": "Plant response rating, Kochia", "setting": "kochia (Kochia scoparia); Postemergence, 31 g ai/ha", "value": 75}, {"measurement": "Plant response rating, Kochia", "setting": "kochia (Kochia scoparia); Postemergence, 62 g ai/ha", "value": 80}, {"measurement": "Plant response rating, Kochia", "setting": "kochia (Kochia scoparia); Postemergence, 125 g ai/ha", "value": 90}, {"measurement": "Plant response rating, Kochia", "setting": "kochia (Kochia scoparia); Preemergence, 16 g ai/ha", "value": 0}, {"measurement": "Plant response rating, Kochia", "setting": "kochia (Kochia scoparia); Preemergence, 31 g ai/ha", "value": 50}, {"measurement": "Plant response rating, Kochia", "setting": "kochia (Kochia scoparia); Preemergence, 62 g ai/ha", "value": 70}, {"measurement": "Plant response rating, Kochia", "setting": "kochia (Kochia scoparia); Preemergence, 125 g ai/ha", "value": 85}, {"measurement": "Plant response rating, Foxtail, Green", "setting": "[11]; 16 g ai/ha", "value": 35}, {"measurement": "Plant response rating, Foxtail, Green", "setting": "[11]; 31 g ai/ha", "value": 80}, {"measurement": "Plant response rating, Foxtail, Green", "setting": "[11]; 62 g ai/ha", "value": 100}, {"measurement": "Plant response rating, Foxtail, Green", "setting": "[11]; 125 g ai/ha", "value": 100}]}
